Measured values taken from US20250228239A1, “MOLECULES HAVING PESTICIDAL UTILITY, AND INTERMEDIATES, COMPOSITIONS, AND PROCESSES, RELATED THERETO” (priority 2024, published 2025).

Legend:
Assay type in all cases: in vivo
[1] = system: Beet Armyworm (Spodoptera exigua, LAPHEG); test: Bioassays on Beet Armyworm (BAW), 128-well diet tray assay; settings: Spodoptera exigua; for pest or weed control at 50 µg/cm2: Beet Armyworm, Table ABC / ABC-DP rating, read-out: BAW rating; for mortality at 50 µg/cm2: 168 h, second instar larvae, 50 μg/cm^2 of test molecule on artificial diet, 25° C., five to seven days, average of eight wells, read-out: BAW % Control (or Mortality) rating
How it was run: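 Eight diet wells per compound were treated at 50 μg/cm^2 (acetone-water 90:10), dried, then infested with 1–5 second-instar larvae each. After five to seven days at 25 °C under 14:10 photoperiod, mortality was scored and averaged across wells.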

[2] = system: Yellow Fever Mosquito (Aedes aegypti, AEDSAE); settings: for YFM rating: Yellow Fever Mosquito, Table ABC / ABC-DP rating; for YFM % Control (or Mortality) rating: about 1 day-old larvae, 4000 ppm master solution diluted with 90:10 water/acetone, 15 μL per well plus 220 μL larval mixture, 3 days
How it was run: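 Compounds from 4000 ppm DMSO stocks were diluted in 90:10 water/acetone and dispensed into wells, then infested with about 1-day-old larvae in liver-powder water. Covered plates were held at room temperature for 3 days and each well was scored for mortality against a rating scale; six replicate plates per compound.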

[3] = system: Cabbage Looper (Trichoplusia ni, TRIPNI); test: Bioassays on Cabbage Looper (CL), 128-well diet tray assay; settings: Trichoplusia ni; for pest or weed control at 50 µg/cm2: Cabbage Looper, Table ABC / ABC-DP rating, read-out: CL rating; for mortality at 50 µg/cm2: 168 h, second instar larvae, 50 μg/cm^2 of test molecule on artificial diet, 25° C., five to seven days, average of eight wells, read-out: CL % Control (or Mortality) rating
How it was run: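 Second-instar larvae (1–5 per well) placed on artificial diet surface-treated with 50 μg/cm^2 test molecule applied in 90:10 acetone-water and dried. Held at 25° C., 14:10 light-dark, for five to seven days. Percent mortality scored per well and averaged over eight wells.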

| SMILES | pest or weed control at 50 µg/cm2 [1] [%] | YFM rating [2] | pest or weed control at 50 µg/cm2 [3] [%] | mortality at 50 µg/cm2 [1] [%] | YFM % Control (or Mortality) rating [2] | mortality at 50 µg/cm2 [3] [%] |
| --- | --- | --- | --- | --- | --- | --- |
| O=C(NNc1ccc(F)cc1F)c1cc(NC(=O)[C@H]2[C@H](c3cc(Cl)cc(Cl)c3)C2(Cl)Cl)ccc1Cl (relative stereo) [F2559, trans-2,2-Dichloro-N-(4-chloro-3-(2-(2,4-difluorophenyl)hydrazine-1-carbonyl)phenyl)-3-(3,5-dichlorophenyl)cyclopropane-1-carboxamide] | 50 to 100 | B (More than 0 – Less than 80) | 50 to 100 | – | – | – |
| O=C(NNc1cc(Cl)ccc1Cl)c1cc(NC(=O)[C@H]2[C@H](c3cc(Cl)cc(Cl)c3)C2(Cl)Cl)ccc1Cl (relative stereo) [F2561, trans-2,2-Dichloro-N-(4-chloro-3-(2-(2,5-dichlorophenyl)hydrazine-1-carbonyl)phenyl)-3-(3,5-dichlorophenyl)cyclopropane-1-carboxamide] | 50 to 100 | B (More than 0 – Less than 80) | 50 to 100 | – | – | – |
| Cc1cc(F)ccc1NNC(=O)c1cc(NC(=O)[C@H]2[C@H](c3cc(Cl)cc(Cl)c3)C2(Cl)Cl)ccc1Cl (relative stereo) [F2562, trans-2,2-Dichloro-N-(4-chloro-3-(2-(4-fluoro-2-methylphenyl)hydrazine-1-carbonyl)phenyl)-3-(3,5-dichlorophenyl)cyclopropane-1-carboxamide] | 50 to 100 | A (80–100) | 50 to 100 | 50 to 100 | A (80–100) | 50 to 100 |
| COc1ccc(NNC(=O)c2cc(NC(=O)[C@H]3[C@H](c4cc(Cl)cc(Cl)c4)C3(Cl)Cl)ccc2Cl)cc1 (relative stereo) [F2563, trans-2,2-Dichloro-N-(4-chloro-3-(2-(4-methoxyphenyl)hydrazine-1-carbonyl)phenyl)-3-(3,5-dichlorophenyl)cyclopropane-1-carboxamide] | 50 to 100 | B (More than 0 – Less than 80) | 50 to 100 | 50 to 100 | B (More than 0 – Less than 80) | 50 to 100 |
| O=C(NNc1ccc(OC(F)(F)F)cc1)c1cc(NC(=O)[C@H]2[C@H](c3cc(Cl)cc(Cl)c3)C2(Cl)Cl)ccc1Cl (relative stereo) [F2564, trans-2,2-Dichloro-N-(4-chloro-3-(2-(4-(trifluoromethoxy)phenyl)hydrazine-1-carbonyl)phenyl)-3-(3,5-dichlorophenyl)cyclopropane-1-carboxamide] | 50 to 100 | A (80–100) | 50 to 100 | 50 to 100 | A (80–100) | 50 to 100 |
| O=C(NNc1ccc(OC(F)(F)C(F)(F)F)cc1)c1cc(NC(=O)[C@H]2[C@H](c3cc(Cl)cc(Cl)c3)C2(Cl)Cl)ccc1Cl (relative stereo) [F2565, trans-2,2-Dichloro-N-(4-chloro-3-(2-(4-(perfluoroethoxy)phenyl)hydrazine-1-carbonyl)phenyl)-3-(3,5-dichlorophenyl)cyclopropane-1-carboxamide] | 50 to 100 | – | 50 to 100 | 50 to 100 | D (No activity noticed in this bioassay) | 50 to 100 |
| Cl.NNC(=O)c1cc(NC(=O)[C@H]2[C@H](c3cc(Cl)cc(Cl)c3)C2(Cl)Cl)ccc1Cl (relative stereo) [F2567, trans-2,2-dichloro-N-(4-chloro-3-(hydrazinecarbonyl)phenyl)-3-(3,5-dichlorophenyl)cyclopropane-1-carboxamide hydrochloride] | 50 to 100 | A (80–100) | 50 to 100 | 50 to 100 | A (80–100) | 50 to 100 |
| O=C(NNc1cccc(C(F)(F)F)c1)c1cc(NC(=O)[C@H]2[C@H](c3cc(Cl)cc(Cl)c3)C2(Cl)Cl)ccc1Cl (relative stereo) [F2572, trans-2,2-Dichloro-N-(4-chloro-3-(2-(3-(trifluoromethyl)phenyl)hydrazine-1-carbonyl)phenyl)-3-(3,5-dichlorophenyl)cyclopropane-1-carboxamide] | 50 to 100 | A (80–100) | 50 to 100 | 50 to 100 | A (80–100) | 50 to 100 |
| N#Cc1ccccc1NNC(=O)c1cc(NC(=O)[C@H]2[C@H](c3cc(Cl)cc(Cl)c3)C2(Cl)Cl)ccc1Cl (relative stereo) [F2576, trans-2,2-Dichloro-N-(4-chloro-3-(2-(2-cyanophenyl)hydrazine-1-carbonyl)phenyl)-3-(3,5-dichlorophenyl)cyclopropane-1-carboxamide] | 50 to 100 | A (80–100) | 50 to 100 | 50 to 100 | A (80–100) | 50 to 100 |
| O=C(NN=Cc1ccccn1)c1cc(NC(=O)[C@H]2[C@H](c3cc(Cl)cc(Cl)c3)C2(Cl)Cl)ccc1Cl (relative stereo) [F3002, trans-2,2-Dichloro-N-(4-chloro-3-(2-(pyridin-2-ylmethylene)hydrazine-1-carbonyl)phenyl)-3-(3,5-dichlorophenyl)cyclopropane-1-carboxamide] | 50 to 100 | A (80–100) | 50 to 100 | 50 to 100 | A (80–100) | 50 to 100 |
| O=C(NN=Cc1cc(F)ccc1F)c1cc(NC(=O)[C@H]2[C@H](c3cc(Cl)cc(Cl)c3)C2(Cl)Cl)ccc1Cl (relative stereo) [F3003, trans-2,2-Dichloro-N-(4-chloro-3-(2-(2,5-difluorobenzylidene)hydrazine-1-carbonyl)phenyl)-3-(3,5-dichlorophenyl)cyclopropane-1-carboxamide] | 50 to 100 | A (80–100) | 50 to 100 | 50 to 100 | A (80–100) | 50 to 100 |
| O=C(NN=Cc1ccc(F)cc1F)c1cc(NC(=O)[C@H]2[C@H](c3cc(Cl)cc(Cl)c3)C2(Cl)Cl)ccc1Cl (relative stereo) [F3004, trans-2,2-Dichloro-N-(4-chloro-3-(2-(2,4-difluorobenzylidene)hydrazine-1-carbonyl)phenyl)-3-(3,5-dichlorophenyl)cyclopropane-1-carboxamide] | 50 to 100 | A (80–100) | 50 to 100 | 50 to 100 | A (80–100) | 50 to 100 |
| CC(=NNC(=O)c1cc(NC(=O)[C@H]2[C@H](c3cc(Cl)cc(Cl)c3)C2(Cl)Cl)ccc1Cl)c1ccccc1 (relative stereo) [F3005, trans-2,2-Dichloro-N-(4-chloro-3-(2-(1-phenylethylidene)hydrazine-1-carbonyl)phenyl)-3-(3,5-dichlorophenyl)cyclopropane-1-carboxamide] | 50 to 100 | A (80–100) | 50 to 100 | 50 to 100 | A (80–100) | 50 to 100 |
| O=C(NN=CCC(F)(F)F)c1cc(NC(=O)[C@H]2[C@H](c3cc(Cl)cc(Cl)c3)C2(Cl)Cl)ccc1Cl (relative stereo) [F3008, trans-2,2-Dichloro-N-(4-chloro-3-(2-(3,3,3-trifluoropropylidene)hydrazine-1-carbonyl)phenyl)-3-(3,5-dichlorophenyl)cyclopropane-1-carboxamide] | 50 to 100 | A (80–100) | 50 to 100 | 50 to 100 | A (80–100) | 50 to 100 |
| CN(N=CCC(F)(F)F)C(=O)c1cc(NC(=O)[C@H]2[C@H](c3cc(Cl)cc(Cl)c3)C2(Cl)Cl)ccc1Cl (relative stereo) [F3009, trans-2,2-dichloro-N-(4-chloro-3-(1-methyl-2-(3,3,3-trifluoropropylidene)hydrazine-1-carbonyl)phenyl)-3-(3,5-dichlorophenyl)cyclopropane-1-carboxamide] | 50 to 100 | A (80–100) | 50 to 100 | 50 to 100 | A (80–100) | 50 to 100 |
